# Test results published in PubChem BioAssay (NCI).
#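 Values below derive from 48-hour exposures of cells grown in 96-well plates, with endpoints linearly interpolated between the two concentrations bracketing the appropriate inhibition level. TGI: total growth inhibition.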
# Assays:
# Assay in all cases: NCI-60 cell line screen, 48 h
# RPMI-8226 leukemia = tested on: RPMI-8226 leukemia
# ACHN renal = tested on: ACHN renal
# OVCAR-3 ovarian = tested on: OVCAR-3 ovarian
# OVCAR-4 ovarian = tested on: OVCAR-4 ovarian
# NCI-H23 lung = tested on: NCI-H23 lung
# PC-3 prostate = tested on: PC-3 prostate
# SW-620 colon = tested on: SW-620 colon
# NCI-H460 lung = tested on: NCI-H460 lung
# CAKI-1 renal = tested on: CAKI-1 renal
# SF-268 CNS = tested on: SF-268 CNS
# MALME-3M melanoma = tested on: MALME-3M melanoma
# HOP-92 NSCLC = tested on: HOP-92 NSCLC
# NCI-H226 lung = tested on: NCI-H226 lung
# MDA-N = tested on: MDA-N
# SK-MEL-28 melanoma = tested on: SK-MEL-28 melanoma
# A549 NSCLC = tested on: A549 NSCLC
# BT-549 breast = tested on: BT-549 breast
# OVCAR-8 ovarian = tested on: OVCAR-8 ovarian
# U251 CNS = tested on: U251 CNS
# HCT-116 colon = tested on: HCT-116 colon
# MCF7 breast = tested on: MCF7 breast
# MDA-MB-231 breast = tested on: MDA-MB-231 breast
# A498 renal = tested on: A498 renal
# SF-539 CNS = tested on: SF-539 CNS
# T-47D breast = tested on: T-47D breast
# KM12 colon = tested on: KM12 colon
# HOP-62 NSCLC = tested on: HOP-62 NSCLC
# MOLT-4 leukemia = tested on: MOLT-4 leukemia
# M14 melanoma = tested on: M14 melanoma
# SR leukemia = tested on: SR leukemia
# SK-MEL-5 melanoma = tested on: SK-MEL-5 melanoma
# IGROV1 ovarian = tested on: IGROV1 ovarian
# HT29 colon = tested on: HT29 colon
# HCT-15 colon = tested on: HCT-15 colon
# HCC-2998 colon = tested on: HCC-2998 colon
# CCRF-CEM leukemia = tested on: CCRF-CEM leukemia
# TK-10 renal = tested on: TK-10 renal
# K-562 leukemia = tested on: K-562 leukemia
# UACC-257 melanoma = tested on: UACC-257 melanoma
# DU-145 prostate = tested on: DU-145 prostate
# SNB-75 CNS = tested on: SNB-75 CNS
# SF-295 CNS = tested on: SF-295 CNS
# UACC-62 melanoma = tested on: UACC-62 melanoma
# LOX IMVI melanoma = tested on: LOX IMVI melanoma
# 786-0 renal = tested on: 786-0 renal
# NCI-H522 lung = tested on: NCI-H522 lung
# HS 578T breast = tested on: HS 578T breast
# UO-31 renal = tested on: UO-31 renal
# HL-60(TB) leukemia = tested on: HL-60(TB) leukemia
# EKVX NSCLC = tested on: EKVX NSCLC
# SK-MEL-2 melanoma = tested on: SK-MEL-2 melanoma
# SNB-19 CNS = tested on: SNB-19 CNS
# SN12C renal = tested on: SN12C renal
# OVCAR-5 ovarian = tested on: OVCAR-5 ovarian
# RXF 393 renal = tested on: RXF 393 renal
# MDA-MB-435 = tested on: MDA-MB-435
# COLO 205 colon = tested on: COLO 205 colon
# NCI/ADR-RES ovarian = tested on: NCI/ADR-RES ovarian
smiles,measurement,setting,value
O=C1c2ccccc2C(=O)c2c(NCCCN3CCOCC3)ccc(NCCCN3CCOCC3)c21,TGI,RPMI-8226 leukemia,42.8 µM
same,TGI,ACHN renal,19.5 µM
same,TGI,OVCAR-3 ovarian,40.3 µM
same,TGI,OVCAR-4 ovarian,> 100 µM
same,TGI,NCI-H23 lung,17.6 µM
same,TGI,PC-3 prostate,12.9 µM
same,TGI,SW-620 colon,28.1 µM
same,TGI,NCI-H460 lung,4.61 µM
same,TGI,CAKI-1 renal,32 µM
same,TGI,SF-268 CNS,20.9 µM
same,TGI,MALME-3M melanoma,27.7 µM
same,TGI,HOP-92 NSCLC,15.9 µM
same,TGI,NCI-H226 lung,31.5 µM
same,TGI,MDA-N,13.6 µM
same,TGI,SK-MEL-28 melanoma,19.8 µM
same,TGI,A549 NSCLC,16.2 µM
same,TGI,BT-549 breast,21.6 µM
same,TGI,OVCAR-8 ovarian,14.1 µM
same,TGI,U251 CNS,19 µM
same,TGI,HCT-116 colon,10.4 µM
same,TGI,MCF7 breast,24.4 µM
same,TGI,MDA-MB-231 breast,13.8 µM
same,TGI,A498 renal,25.2 µM
same,TGI,SF-539 CNS,4.03 µM
same,TGI,T-47D breast,83.9 µM
same,TGI,KM12 colon,20.5 µM
same,TGI,HOP-62 NSCLC,13.1 µM
same,TGI,MOLT-4 leukemia,19.8 µM
same,TGI,M14 melanoma,10.1 µM
same,TGI,SR leukemia,> 100 µM
same,TGI,SK-MEL-5 melanoma,6.79 µM
same,TGI,IGROV1 ovarian,29.4 µM
same,TGI,HT29 colon,12.7 µM
same,TGI,HCT-15 colon,> 100 µM
same,TGI,HCC-2998 colon,27 µM
same,TGI,CCRF-CEM leukemia,> 100 µM
same,TGI,TK-10 renal,39.1 µM
same,TGI,K-562 leukemia,> 100 µM
same,TGI,UACC-257 melanoma,9.91 µM
same,TGI,DU-145 prostate,52.6 µM
same,TGI,SNB-75 CNS,10.7 µM
same,TGI,SF-295 CNS,11.4 µM
same,TGI,UACC-62 melanoma,6.05 µM
same,TGI,LOX IMVI melanoma,3.61 µM
same,TGI,786-0 renal,16.7 µM
same,TGI,NCI-H522 lung,2.35 µM
same,TGI,HS 578T breast,28.5 µM
same,TGI,UO-31 renal,17.4 µM
same,TGI,HL-60(TB) leukemia,> 100 µM
same,TGI,EKVX NSCLC,46.6 µM
same,TGI,SK-MEL-2 melanoma,25.5 µM
same,TGI,SNB-19 CNS,41 µM
same,TGI,SN12C renal,17.2 µM
same,TGI,OVCAR-5 ovarian,38.5 µM
same,TGI,RXF 393 renal,27.1 µM
CCOC(=O)C(CCc1ncnc2c1ncn2Cc1ccccc1)(CCc1ncnc2c1ncn2Cc1ccccc1)C(=O)OCC,TGI,RPMI-8226 leukemia,> 100 µM
same,TGI,ACHN renal,> 100 µM
same,TGI,OVCAR-3 ovarian,> 100 µM
same,TGI,OVCAR-4 ovarian,> 100 µM
same,TGI,MDA-MB-435,> 100 µM
same,TGI,NCI-H23 lung,> 100 µM
same,TGI,PC-3 prostate,> 100 µM
same,TGI,SW-620 colon,> 100 µM
same,TGI,COLO 205 colon,> 100 µM
same,TGI,NCI-H460 lung,> 100 µM
same,TGI,CAKI-1 renal,> 100 µM
same,TGI,SF-268 CNS,> 100 µM
same,TGI,MALME-3M melanoma,> 100 µM
same,TGI,HOP-92 NSCLC,> 100 µM
same,TGI,NCI-H226 lung,> 100 µM
same,TGI,MDA-N,> 100 µM
same,TGI,SK-MEL-28 melanoma,> 100 µM
same,TGI,A549 NSCLC,> 100 µM
same,TGI,BT-549 breast,> 100 µM
same,TGI,OVCAR-8 ovarian,> 100 µM
same,TGI,U251 CNS,> 100 µM
same,TGI,HCT-116 colon,> 100 µM
same,TGI,MCF7 breast,> 100 µM
same,TGI,MDA-MB-231 breast,> 100 µM
same,TGI,A498 renal,> 100 µM
same,TGI,SF-539 CNS,94.6 µM
same,TGI,KM12 colon,> 100 µM
same,TGI,HOP-62 NSCLC,> 100 µM
same,TGI,MOLT-4 leukemia,> 100 µM
same,TGI,M14 melanoma,> 100 µM
same,TGI,SR leukemia,> 100 µM
same,TGI,SK-MEL-5 melanoma,> 100 µM
same,TGI,IGROV1 ovarian,> 100 µM
same,TGI,HT29 colon,> 100 µM
same,TGI,HCT-15 colon,> 100 µM
same,TGI,HCC-2998 colon,54.8 µM
same,TGI,TK-10 renal,> 100 µM
same,TGI,K-562 leukemia,> 100 µM
same,TGI,UACC-257 melanoma,> 100 µM
same,TGI,DU-145 prostate,> 100 µM
same,TGI,SF-295 CNS,> 100 µM
same,TGI,UACC-62 melanoma,> 100 µM
same,TGI,LOX IMVI melanoma,> 100 µM
same,TGI,786-0 renal,> 100 µM
same,TGI,NCI-H522 lung,> 100 µM
same,TGI,HS 578T breast,> 100 µM
same,TGI,UO-31 renal,10.9 µM
same,TGI,HL-60(TB) leukemia,> 100 µM
same,TGI,EKVX NSCLC,> 100 µM
same,TGI,SK-MEL-2 melanoma,> 100 µM
same,TGI,SNB-19 CNS,> 100 µM
same,TGI,SN12C renal,> 100 µM
same,TGI,OVCAR-5 ovarian,> 100 µM
same,TGI,NCI/ADR-RES ovarian,> 100 µM
same,TGI,RXF 393 renal,> 100 µM
